Assay results reported in publication PMC11784839, “Monoaminergic neurotransmitters are bimodal effectors of tau aggregation” (Science Advances, 2025).

Target: tau (Homo sapiens, UniProt P10636)
Experiment: MCE Phenols Library screening, tau biosensor cell seeding assay (AvZ)
Type: cell-based
Conditions: for Z repl 1 / Z Repl 2: Z score; for Z repl 1 / raw data 1: replicate 1; for Z Repl 2 / raw data 2: replicate 2; for AvZ (average z score of seeding, SDs from the mean level of seeding): 10 μM phenol in cell cultures, AD brain homogenate preincubated 16 hours, two biological replicates, positive = catalyzes seeding, negative = inhibits
[1] = average Z score of the two replicates, tau seeding
[2] = average Z score of two replicates, Phenols Library screen
[3] = average Z score of the two replicates, MCE Phenols Library screen
[4] = average puncta of the two replicates

Sequence of tau (P10636 623-695 limits assumed): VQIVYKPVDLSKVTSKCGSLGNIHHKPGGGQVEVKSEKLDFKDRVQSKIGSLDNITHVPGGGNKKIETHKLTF

SMILES | Z repl 1 | Z Repl 2 | av Z [1] | av puncta (average of raw data 1 and 2) | raw data 1 (puncta) | raw data 2 (puncta) | AvZ (average z score of seeding, SDs from the mean level of seeding) | av Z [2] | av Z [3] | av puncta [4] | raw data 1 (raw puncta) | raw data 2 (raw puncta) | av Z (average Z score of the two replicates, tau biosensor seeding, MCE Phenols Library screen)
COc1cc2c(cc1O)CC[n+]1cc3c4c(ccc3cc1-2)OCO4 [Groenlandicine] | 0.553 | -0.208 | 0.172 | 21762.9 | 32984.4 | 10541.3 | – | – | – | – | – | – | –
CCCCCCCCCCCCCCCc1cccc(O)c1C(=O)O [Anacardic Acid] | 0.086 | -0.324 | – | 18346.5 | 27383.8 | 9309.16 | -0.119 | – | – | – | – | – | –
CC(Cc1ccc(O)c(O)c1)C(C)Cc1ccc(O)c(O)c1 (stereo not drawn) [Nordihydroguaiaretic acid] | -0.326 | 0.012 | – | 17666.9 | 22434.9 | 12898.9 | – | -0.157 | – | – | – | – | –
COC(=O)/C=C/c1ccc(O)cc1 [(E)-Methyl 4-coumarate] | 0.336 | -0.209 | – | 20459.1 | 30381.4 | 10536.7 | 0.064 | – | – | – | – | – | –
O.O.O=c1c(O)c(-c2ccc(O)c(O)c2)oc2cc(O)cc(O)c12 [Quercetin (dihydrate)] | -1.56 | -1.162 | – | 3988.66 | 7625.22 | 352.104 | – | – | -1.361 | – | – | – | –
COc1cc(C(=O)O)cc(OC)c1O [Syringic acid] | 0.138 | 0.027 | – | 20525.8 | 28000.6 | 13051.1 | 0.082 | – | – | – | – | – | –
O=C(/C=C/c1ccc(O)c(O)c1)O[C@H]1[C@H](O)C[C@](O)(C(=O)O)C[C@H]1O [Cryptochlorogenic acid] | 0.935 | 0.427 | 0.681 | 27449.5 | 37574 | 17325 | – | – | – | – | – | – | –
O=C(O)c1cc(O)c(O)c(O)c1 [Gallic acid] | -2.072 | -1.182 | – | 803.018 | 1468.86 | 137.18 | -1.627 | – | – | – | – | – | –
Cl.Oc1ccc(CC2NCCc3cc(O)c(O)cc32)cc1 (stereo not drawn) [Higenamine (hydrochloride)] | -0.238 | -1.059 | – | – | 23487.2 | 1451.73 | – | – | -0.649 | 12469.5 | – | – | –
CCc1cccc(C)c1O [2-Ethyl-6-methylphenol] | 0.346 | -0.011 | – | 21574.5 | 30502.1 | 12646.9 | 0.167 | – | – | – | – | – | –
O=C(O)c1cc(O)c2c(c1)[C@H]([C@H]1c3cc(C(=O)O)cc(O)c3C(=O)c3c(O[C@@H]4O[C@H](CO)[C@@H](O)[C@H](O)[C@H]4O)cccc31)c1cccc(O[C@@H]3O[C@H](CO)[C@@H](O)[C@H](O)[C@H]3O)c1C2=O [Sennoside A] | -1.043 | -0.801 | – | 9021.29 | 13826.4 | 4216.17 | – | – | -0.922 | – | – | – | –
O=C(OC[C@H]1O[C@@H](OC(=O)c2cc(O)c(O)c(OC(=O)c3cc(O)c(O)c(O)c3)c2)[C@H](OC(=O)c2cc(O)c(O)c(OC(=O)c3cc(O)c(O)c(O)c3)c2)[C@@H](OC(=O)c2cc(O)c(O)c(OC(=O)c3cc(O)c(O)c(O)c3)c2)[C@@H]1OC(=O)c1cc(O)c(O)c(OC(=O)c2cc(O)c(O)c(O)c2)c1)c1cc(O)c(O)c(OC(=O)c2cc(O)c(O)c(O)c2)c1 [Tannic acid] | -2.109 | -1.136 | – | 829.805 | 1030.3 | 629.309 | – | – | -1.623 | – | – | – | –
COc1ccc2cc3[n+](cc2c1OC)CCc1cc(O)c(O)cc1-3 [Demethyleneberberine] | -0.088 | -0.204 | – | 17943.1 | 25297.3 | 10588.9 | – | -0.146 | – | – | – | – | –
O=C1C[C@@H](c2ccc(O)cc2)Oc2cc(O[C@@H]3O[C@H](CO)[C@@H](O)[C@H](O)[C@H]3O)ccc21 [Neoliquiritin] | -0.356 | -0.555 | – | – | 22080.4 | 6836.97 | – | – | -0.455 | 14458.7 | – | – | –
COc1cc(C(C)=O)ccc1O [Apocynin] | -1.155 | -0.185 | – | – | 12482.9 | 10795.4 | -0.67 | – | – | 11639.1 | – | – | –
COc1ccc(CCO[C@@H]2O[C@H](CO[C@@H]3O[C@H](CO)[C@H](O)[C@H](O)[C@H]3O)[C@@H](OC(=O)/C=C/c3ccc(O)c(OC)c3)[C@H](O[C@@H]3O[C@@H](C)[C@H](O)[C@@H](O)[C@H]3O)[C@H]2O)cc1O [Jionoside B1] | 0.183 | -0.42 | – | 18414.7 | 28546.2 | 8283.25 | – | -0.118 | – | – | – | – | –

SMILES | Z repl 1 | Z Repl 2 | av Z [1] | av puncta (average of raw data 1 and 2) | raw data 1 (puncta) | raw data 2 (puncta) | AvZ (average z score of seeding, SDs from the mean level of seeding) | av Z [2] | av Z [3] | av puncta [4] | raw data 1 (raw puncta) | raw data 2 (raw puncta) | av Z (average Z score of the two replicates, tau biosensor seeding, MCE Phenols Library screen)
COc1cc(C)ccc1O [Creosol] | 0.313 | 1.224 | – | 27969.9 | 30100.9 | 25838.9 | 0.768 | – | – | – | – | – | –
O=C1c2ccccc2C(=O)c2c1ccc(O)c2O [Alizarin] | -0.67 | -0.047 | – | – | – | – | – | – | -0.359 | 15284.3 | 18305.8 | 12262.8 | –
COc1cc(O)c2c(=O)c(OC)c(-c3ccc(OC)c(OC)c3)oc2c1 [Retusin] | -0.575 | -0.37 | – | – | 19450.4 | 8814.06 | – | – | -0.472 | 14132.2 | – | – | –
COc1cc2c(cc1O)CCN1Cc3c(ccc(OC)c3OC)CC21 (stereo not drawn) [Corypalmine] | 0.295 | -0.524 | – | 18532.2 | 29892.4 | 7171.93 | – | -0.114 | – | – | – | – | –
Cc1cc(=O)oc2cc(O)ccc12 [4-Methylumbelliferone] | -0.898 | -0.379 | – | – | 15562.7 | 8717.47 | – | – | -0.639 | 12140.1 | – | – | –
O=C1O[C@@H]2[C@@H](O)[C@H](O)[C@@H](CO)O[C@H]2c2c1cc(O)c(O)c2O [Norbergenin] | -0.528 | 0.442 | – | 18743.5 | 20005.8 | 17481.2 | – | -0.043 | – | – | – | – | –
COc1cc2c(=O)c(-c3ccc(O)cc3)coc2cc1O [Glycitein] | 0.123 | -0.524 | – | – | – | – | – | – | -0.2 | 17498.7 | 27830.8 | 7166.64 | –
O=c1cc(-c2ccc(O)cc2)oc2cc(O)c([C@@H]3O[C@H](CO)[C@@H](O)[C@H](O)[C@H]3O[C@@H]3OC[C@H](O)[C@H](O)[C@H]3O)c(O)c12 [Isovitexin 2''-O-arabinoside] | -0.906 | -0.245 | – | – | 15471.3 | 10150.6 | – | – | -0.575 | 12810.9 | – | – | –
C[C@@H]1O[C@@H](O[C@H]2C(=O)c3c(O)cc(O)cc3O[C@H]2c2ccc(O)c(O)c2)[C@H](O)[C@H](O)[C@H]1O [Neoisoastilbin] | 0.661 | 0.303 | 0.482 | 25148.1 | 34290.2 | 16006 | – | – | – | – | – | – | –
O=c1cc(-c2ccc(O)cc2)oc2cc(O[C@@H]3O[C@H](CO)[C@@H](O)[C@H](O)[C@H]3O[C@@H]3OC[C@](O)(CO)[C@H]3O)cc(O)c12 [Apiin] | 1.204 | 0.234 | 0.719 | 28032.2 | 40800.8 | 15263.6 | – | – | – | – | – | – | –
O=C1C[C@@H](c2ccc(O[C@@H]3O[C@H](CO)[C@@H](O)[C@H](O)[C@H]3O)cc2)Oc2cc(O)ccc21 [Liquiritin] | 0.131 | -0.067 | – | 19987.6 | 27927.2 | 12048 | – | 0.032 | – | – | – | – | –
O=C(/C=C/c1ccccc1)c1ccc(O)cc1 [4'-Hydroxychalcone] | 0.138 | 0.314 | 0.226 | 22065.5 | 28009.6 | 16121.4 | – | – | – | – | – | – | –
COc1cc(C[C@@H](CO)[C@H](CO)Cc2ccc(O)c(OC)c2)ccc1O [Secoisolariciresinol] | 1.372 | 0.426 | – | 30068 | 42819.5 | 17316.5 | – | – | – | – | – | – | 0.899
O=c1ccc2ccc(O)cc2o1 [Umbelliferone] | -1.269 | -0.533 | – | 9095.02 | 11115.4 | 7074.65 | – | – | -0.901 | – | – | – | –
COc1ccc(-c2oc3c(CC=C(C)C)c(O[C@@H]4O[C@H](CO)[C@@H](O)[C@H](O)[C@H]4O)cc(O)c3c(=O)c2O[C@@H]2O[C@@H](C)[C@H](O)[C@@H](O)[C@H]2O[C@@H]2O[C@H](CO)[C@@H](O)[C@H](O)[C@H]2O)cc1 [Epimedin A] | -1.302 | -0.744 | – | 7768.23 | 10713.2 | 4823.23 | – | – | -1.023 | – | – | – | –
